Among the data in patent US20040127492A1 (Pharmacia Corporation, priority 2002, published 2004) are IC50 values, retold here.

pIC50: −log10 of the molar value. Like-named read-outs stand apart in the source and are kept apart here. Where only a bound is given, the exact number is not on record here.

In experiment [1] the target is MAPKAPK2 (MK-2) (Homo sapiens, UniProt P49137). Nature of the experiment: Determination of MK-2 IC50 (HSP-peptide phosphorylation, anion exchange resin capture assay). Type of experiment: biochemical. Summed up: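 MAPKAPK2, preactivated by p38α with 0.25 mM ATP for 1 h at 30° C, used at 15 nM to phosphorylate HSP-peptide with 0.03 mM ATP plus [γ33P]ATP, pH 7.5, 2% DMSO, 30 min at 30° C. Labelled peptide counted after anion-exchange resin capture; IC50 from six ten-fold dilutions, triplicate.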

Experiment [2] deals with MK-3 (Homo sapiens, UniProt Q16644). Nature of the experiment: MK-3 inhibition IC50 (similar method to MK-2, with appropriate modifications). Format: biochemical. Here is the method: In practice, the selectivity of a cyclic pyrazole MK-2 inhibitor varies depending upon the condition under which the test is performed and on the inhibitors being tested. However, for the purposes of this specification, the selectivity of a cyclic pyrazole MK-2 inhibitor inhibitor can be measured as a ratio of the in vitro or in vivo IC50 value for inhibition of MK-3, divided by the IC50 value for inhibition of MK-2 (IC50 MK-3/IC50 MK-2). […] The MK-2 or MK-3 inhibiting activity of any of the compounds described herein can be determined by any one of several methods that are well known to those having skill in the art of enzyme activity testing. […] A similar method, with appropriate modifications, Can be used to measure MK-3 inhibitory activity. In addition, the efficacy of one of the present MK-2 inhibiting compounds in therapeutic applications can be determined by testing for inhibition of TNFα production in cell culture and in animal model assays.

Setting [3] is: Table 2, pyrazolylpyrazole MK-2 inhibitors, read-out: MK-2 Avg. IC50.
Setting [4] is: Table 2, pyrazolylpyrazole MK-2 inhibitors, read-out: MK-3 Avg. IC50.
Where [5] appears, read: Table 1, phenoxypyrazole MK-2 inhibitors, read-out: MK-2 Avg, IC50.
Where [6] appears, read: Table 1, phenoxypyrazole MK-2 inhibitors, read-out: MK-3 Avg. IC50.

Chain of MK-3 (Q16644 whole entry, species assumed): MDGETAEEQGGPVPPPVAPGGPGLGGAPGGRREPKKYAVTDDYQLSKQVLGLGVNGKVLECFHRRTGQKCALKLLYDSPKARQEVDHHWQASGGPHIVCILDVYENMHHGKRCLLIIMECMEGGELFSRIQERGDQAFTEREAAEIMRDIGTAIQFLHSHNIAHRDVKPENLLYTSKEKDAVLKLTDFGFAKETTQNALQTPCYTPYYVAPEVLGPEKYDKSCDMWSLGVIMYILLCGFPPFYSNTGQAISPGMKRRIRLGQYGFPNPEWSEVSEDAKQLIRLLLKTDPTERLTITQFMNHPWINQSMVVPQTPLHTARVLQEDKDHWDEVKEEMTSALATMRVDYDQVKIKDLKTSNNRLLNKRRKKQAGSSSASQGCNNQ
Chain of MAPKAPK2 (MK-2) (P49137 whole entry, species assumed): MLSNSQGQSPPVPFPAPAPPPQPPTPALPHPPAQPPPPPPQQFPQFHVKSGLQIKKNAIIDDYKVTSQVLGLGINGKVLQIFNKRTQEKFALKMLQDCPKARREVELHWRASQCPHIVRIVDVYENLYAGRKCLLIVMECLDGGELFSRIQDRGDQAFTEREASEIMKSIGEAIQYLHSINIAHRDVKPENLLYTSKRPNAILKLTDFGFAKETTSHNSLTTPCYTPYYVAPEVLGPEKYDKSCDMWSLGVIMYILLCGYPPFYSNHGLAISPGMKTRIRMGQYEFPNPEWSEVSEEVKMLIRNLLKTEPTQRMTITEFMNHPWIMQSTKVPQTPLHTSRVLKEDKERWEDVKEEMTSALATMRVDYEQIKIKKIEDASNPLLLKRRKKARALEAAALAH

As to `CN(C)c1cccc(-c2cc3c(cn2)CCc2c-3nn3c2C(=O)NCCC3)c1` [Example 53], the pIC50 (as a rule, the IC50 on a negative log10 scale, so that one unit is a factor of ten) in experiment [1] (read-out: MK-2 Avg. IC50) is 6.32; in experiment [2] (read-out: MK-3 Avg. IC50) it was 5.31.
For the compound `O=C1NCCCn2nc3c(c21)CCc1[nH]ncc1-3` [Example 13], the negative logarithm of the IC50 (pIC50) was 4.71 in experiment [1] (setting [3]) and 3.84 in experiment [2] (setting [4]).
For the compound `NCCCn1nc2c(c1C(=O)O)CCc1cc(O)c(-c3ccncc3)cc1-2` [Example 23], the pIC50 was 4.73 in experiment [1] (setting [5]) and under 3.70 in experiment [2] (setting [6]).
Taken in the same sequence, the figures for `COC(=O)c1[nH]nc2c1CCc1cc(OC)ccc1-2` [Example 182] were under 3.70 and under 3.70.
The matching figures for `NCCCn1nc2c(c1C(=O)O)CCc1cc(O)c(-c3ccccc3Cl)cc1-2` [Example 30]: 4.53 and 4.22.
The matching figures for `O=C(O)c1n[nH]c2c1CC(c1ccccc1)c1cc(O)ccc1-2` (stereo not shown) [Example 113]: under 3.70 and under 3.70.
`COCCOCOc1ccc2c(c1)CCc1c-2n[nH]c1C(=O)O` [Example 61]: the pIC50 is 3.82 in experiment [1] (setting [5]) and under 3.70 in experiment [2] (setting [6]).
The matching figures for `COc1cc2c(cc1-c1ccc(C(C)(C)C)cc1)-c1nn(CCCNC(=O)OC(C)(C)C)c(C(=O)O)c1CC2` [Example 42]: 4.18 and under 3.70.
In the case of `O=C1NC(CNCCc2cccs2)Cn2nc3c(c21)CCc1cnccc1-3` (stereo not shown) [Example 73], the pIC50 was 6.03 in experiment [1] (read-out: MK-2 Avg. IC50) and 4.56 in experiment [2] (read-out: MK-3 Avg. IC50).
`COc1cc2c(cc1-c1cccc([N+](=O)[O-])c1)-c1nn(CCNC(=O)OC(C)(C)C)c(C(=O)O)c1CC2` [Example 44]: the pIC50 in experiment [1] (setting [5]) was 4.09; in experiment [2] (setting [6]) it was under 3.70.
The matching figures for `NCCCn1nc2c(c1C(=O)O)CCc1cc(O)c(-c3cccc(Cl)c3)cc1-2` [Example 13]: 4.98 and 3.92.
Turning to `O=C1NCCCn2nc3c(c21)CCc1cnc(-c2cccnc2)nc1-3` [Example 5], the pIC50 in experiment [1] (Table 4, pyrimidylpyrazole MK-2 inhibitors, read-out: MK-2 Avg. IC50) was 5.80; in experiment [2] (Table 4, pyrimidylpyrazole MK-2 inhibitors, read-out: NK-3 Avg. IC50), 3.77.
For the compound `O=C(O)c1c2c(nn1CCCNCCc1ccc(Cl)c(Cl)c1)-c1ccncc1CC2` [Example 34], the negative logarithm of the IC50 (pIC50) in experiment [1] (read-out: MK-2 Avg. IC50) was 6.70; in experiment [2] (read-out: MK-3 Avg. IC50), 4.99.
Take `NCCCn1nc2c(c1C(=O)O)CCc1cnc(/C=C/c3ccccc3)cc1-2` [Example 33]: the pIC50 is 7.48 in experiment [1] (Table 5, other cyclic pyrazole MK-2 inhibiting compounds, read-out: MK-2 Avg. IC50) and 6.28 in experiment [2] (Table 5, other cyclic pyrazole MK-2 inhibiting compounds, read-out: MK-3 Avg. IC50).
For the compound `Nc1ccc(NCCCn2nc3c(c2C(=O)O)CCc2cnccc2-3)cc1` [Example 158], the pIC50 in experiment [1] (read-out: MK-2 Avg. IC50) was 5.01; in experiment [2] (read-out: MK-3 Avg. IC50), 3.88.
Consider `O=C1NCCCn2nc3c(c21)CCc1cc(O)c(-c2cccc([N+](=O)[O-])c2)cc1-3` [Example 3], for which the pIC50 was 5.83 in experiment [1] (setting [5]) and under 3.70 in experiment [2] (setting [6]).
On to `CCOC(=O)c1nn(CC(F)(F)F)c2c1CCc1c-2cnn1C(c1ccccc1)(c1ccccc1)c1ccccc1` [Example 73], for which the negative logarithm of the IC50 (pIC50) in experiment [1] (setting [3]) and in experiment [2] (setting [4]) was at most 3.70 each time.
On to `NCCCCn1nc2c(c1C(=O)O)CCc1cnccc1-2` [Example 113], for which the pIC50 in experiment [1] (read-out: MK-2 Avg. IC50) is 5.52; in experiment [2] (read-out: MK-3 Avg. IC50) it was 3.76.
The matching figures for `CN1CCN(c2cc3c(cn2)CCc2c-3nn3c2C(=O)NCC3)CC1` [Example 245]: 4.01 and 3.97.
The matching figures for `CC(C)(C)c1ccc(-c2cc3c(cn2)CCc2c-3nn(CCCN)c2C(=O)O)cc1` [Example 22]: 6.95 and 6.37.
As to `O=C(O)CCn1nc(C(=O)O)c2c1-c1cn[nH]c1CC2` [Example 100], the pIC50 in experiment [1] (setting [3]) and in experiment [2] (setting [4]) was at most 3.70 each time.
Regarding `O=C(O)c1c2c(nn1CCCNCCc1ccc(-c3ccccc3Cl)cc1)-c1ccncc1CC2` [Example 32], the negative-log IC50 (pIC50) is 6.73 in experiment [1] (read-out: MK-2 Avg. IC50) and 5.02 in experiment [2] (read-out: MK-3 Avg. IC50).
Consider `COc1cc2c(cc1OC)-c1c(c(C(N)=O)nn1-c1ccc(S(N)(=O)=O)cc1)CC2` [Example 175], for which the pIC50 in experiment [1] (setting [5]) and in experiment [2] (setting [6]) was under 3.70 in each case.
In the case of `CSc1n[nH]c2c1-c1nn3c(c1CC2)C(=O)NCCC3` [Example 11], the pIC50 in experiment [1] (setting [3]) was 4.98; in experiment [2] (setting [4]), at most 3.70.
Taken in the same sequence, the figures for `C=CCn1nc(C(N)=O)c2c1-c1cn[nH]c1CC2` [Example 26] were 4.02 and 4.31.
Regarding `CCOC(=O)c1nn(CC(F)(F)F)c2c1CCc1[nH]ncc1-2` [Example 80], the results for the pIC50 in experiment [1] (setting [3]) and in experiment [2] (setting [4]) were at most 3.70 and 3.91, respectively.
